According to publication doi:10.1101/2021.06.08.447613v1 (biorxiv, 2021):

Biological target: M^Pro (SARS-CoV-2 main protease) (Severe acute respiratory syndrome coronavirus 2, UniProt P0DTD1)
Assay: fluorogenic peptide substrate cleavage, […] min preincubation
Type: biochemical
Conditions: pH 7.6, 37 °C, 50 nM enzyme, 10 μM substrate

## CCN(CC)CCCC(C)Nc1ccnc2cc(Cl)ccc12 (stereo not shown) [chloroquine]
  % activity retained at 16 μM: 84%
